In paper PMC5597121, “The human bitter taste receptor T2R38 is broadly tuned for bacterial compounds” (PLoS ONE, 2017):
Numbering of substitutions follows the chain as printed. Where “and” joins values, the source holds several entries; their conditions need not be identical. Identical values can stand only once. Entries after “also recorded” stand apart in the source; their conditions may differ. Like-named read-outs stand apart in the source and are kept apart here. Positions of bridges follow the written chain, without caps; N, C: chain ends. Residues, ends and D or L forms follow the SMILES beside them.

Assays:
[1] = Solubility in aqueous / buffer solution; type: physicochemical
Procedure: 32 volatile metabolites of pathogens (S1 Fig) were selected from the literature. All compounds were dissolved in buffer solution, except C4HSL dissolved in buffer solution, DMSO or ethanol, C12HSL dissolved in DMSO or ethanol, and Agr D1 thiolactone dissolved in DMSO.

[2] = molecular target: T1, T2R38 (Homo sapiens, UniProt P59533, A49P/I296V); test: Single cell calcium imaging, Peakrapid cells (Gα16gustducin44) transiently transfected with T2R38; type: cell-based
T1 construct: leader: first 45 amino acids of rat somatostatin receptor subtype 3 (SSTR3) (N); expressed in transfected cells; host or cells: Peakrapid cells (HEK293 derivative, ATCC CRL-2828) stably expressing Galpha16gustducin44, co-transfected with human RTP4
T1 sequence (P59533 1-333 A49P/I296V): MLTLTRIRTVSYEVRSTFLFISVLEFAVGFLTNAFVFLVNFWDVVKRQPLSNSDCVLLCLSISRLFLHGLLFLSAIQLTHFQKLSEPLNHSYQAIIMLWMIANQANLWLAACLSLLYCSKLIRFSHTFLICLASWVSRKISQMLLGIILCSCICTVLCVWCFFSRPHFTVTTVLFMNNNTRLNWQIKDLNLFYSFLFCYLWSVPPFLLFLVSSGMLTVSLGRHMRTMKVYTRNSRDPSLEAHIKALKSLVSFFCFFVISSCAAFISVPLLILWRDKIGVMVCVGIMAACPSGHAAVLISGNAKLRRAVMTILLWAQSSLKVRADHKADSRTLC
How it was run: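 HEK293-derived Peakrapid cells stably expressing Gα16gustducin44 were transiently co-transfected with T2R38 (PAV or AVI variant) plus RTP4, then loaded with Fluo4 40 h later. Calcium responses were imaged 1/s for 30 s after ligand injection. Responding-cell surface was normalized to 0.1 mM PTC, with EC50 from four-parameter fits; testing began at 100 mM.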

[3] = system: mock transfected cells (empty vector); test: Single cell calcium imaging, control: mock transfected (empty vector) Peakrapid cells; type: cell-based, human
How it was run: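 Peakrapid cells stably expressing Gα16gustducin44 were transfected with empty vector plus RTP4, loaded with Fluo4 40 h later for 1 h at 37°C, and ligand was injected during 30 s imaging. The responding-cell surface fraction was normalized to 0.1 mM PTC activation. EC50 came from a four-parameter logistic fit.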

[4] = molecular target: T2, T2R38 AVI (Homo sapiens, UniProt P59533, A262V); test: Single cell calcium imaging, control: cells transfected with nonfunctional allele (AVI) of T2R38; type: cell-based
T2 construct: leader: first 45 amino acids of rat somatostatin receptor subtype 3 (SSTR3) (N); expressed in transfected cells; host or cells: Peakrapid cells (HEK293 derivative, ATCC CRL-2828) stably expressing Galpha16gustducin44, co-transfected with human RTP4
T2 sequence (P59533 1-333 A262V): T1 sequence (P59533 1-333 A49P/I296V) with P49A, A262V, V296I
Procedure: The coding sequences of either the functional (PAV, GenBank accession number AY258597.1) and non-functional (AVI, GenBank accession number AF494231.1) were amplified from human genomic DNA by polymerase chain reaction.
The Peakrapid cell line expressing stably a chimeric Gα16gustducin44 G protein [21] was used. 40 000 cells were seeded in each well of a black/clear poly-D-lysine cellware pre-coated 96-well plate (Biocoat®, Becton-Dickinson, Erembodegem, Belgium) and transiently transfected with 50 ng of plasmid DNA containing the receptor sequence or not (empty vector) and with 50 ng of chaperone protein RTP4 per well. Forty hours after transfection, cells were incubated with the calcium-sensitive dye Fluo4 (Life Technologies, Oregon, USA) solubilized at 10 μg/ml in a buffer containing EMEM (150 mM NaCl, 5 mM KCl, 2 mM CaCl2, 1.2 mM MgCl2, 10 mM glucose), 10 mM HEPES, 0.01% (v/v) Pluronic F127, 0.1% (w/v) bovine serum albumin. After 1 h incubation at 37°C, cells were rinsed twice with the same buffer without Fluo4 and left in 50 μl buffer (prior ligand injection). Measurement were performed on a platform based on a motorized Axiobserver Z1 fluorescence microscope piloted by a Axiovision software (Zeiss, Jena, Germany) as described previously. For each selected well, images were taken 1 per second, during 30 seconds. 50 μl of the buffer containing the ligand twice concentrated was injected on the 2nd second of the time lapse record.
After time lapse record, the number of responding cells in each injected well was determined using ImageJ 1.34 (Rasband, W.S., ImageJ, National Institutes of Health, Bethesda, Maryland, USA, http://rsb.info.nih.gov/ij/1997-2004), and expressed as the percentage of the surface of a microscope field covered by activated cells with respect to the total surface of the field covered by confluent cells. Automated determination of the surface occupied by responding cells is easier to perform than a cell counting. The resulting percentage of positive surface provided a convenient estimation of the percentage of responding cells, as observed by comparing the percentage of positive surface and percentage of responsive cells determined by direct counting, in the same experiment. In agreement with the literature, the percentage of responding cells was proportional to the agonist concentration. During experiment in each plate, at least 2 wells were tested with phenylthiocarbamide (PTC) at 0.1 mM, which is one of the best characterized agonist of T2R38 in the literature. The activation of T2R38 by PTC allows normalization of the result of other tested molecules. The results were thus expressed as the percentage of PTC activation. In scaling calcium imaging assays using this latter receptor, concentration-responses curves were performed and data were fitted to a four parameter logistic equation: y=min+ (max− min)/1+10 ^(logEC50−x)nH . Min and max are the minimum and the maximum values of the percentage of cell-activated surface respectively, y is the percentage of cell-activated surface at the x concentration and nH is the Hill coefficient.

## CC[C@H](C)[C@@H]1NC(=O)[C@H](Cc2ccccc2)NC(=O)[C@H](CC(=O)O)NC(=O)[C@@H](NC(=O)[C@@H](NC(=O)[C@H](CO)NC(=O)[C@@H](N)Cc2ccc(O)cc2)[C@@H](C)O)CSC(=O)[C@H](CCSC)NC1=O [Agr D1 thiolactone] (H-YSTCDFIM; thioester 4-C; N-terminus assumed)
[1]
  solubility: not soluble in aqueous solution
[2]
  agonist activity on T2R38 (in words): inactive
[2]; 0.1 mM solubilized in 0.3% DMSO
  specific activation of T2R38: did not show specific activation; also recorded: did not activate T2R38

## CCCC(C)=O [2-pentanone]
[3]; 2 pentanone 0.0001, log10[ ] -4
  percentage of surface covered by activated cells: 0.19% and 0.34% and 0.32% and 0.16% and 0.35% and 0.41%
[3]; 2 pentanone 0.001, log10[ ] -3
  percentage of surface covered by activated cells: 0.04% and 1.06% and 0.17% and 0.14% and 0.64% and 0.06%
[3]; 2 pentanone 0.003, log10[ ] -2.52288
  percentage of surface covered by activated cells: 0.03% and 0.41% and 0.31% and 0.06% and 0.22% and 0.074%
[3]; 2 pentanone 0.006, log10[ ] -2.22185
  percentage of surface covered by activated cells: 0.27% and 1.25% and 0.19% and 0.29% and 0.62% and 0.33%
[3]; 2 pentanone 0.02, log10[ ] -1.69897
  percentage of surface covered by activated cells: 0.18% and 0.24% and 0.54% and 1.13% and 0.15% and 0.52%
[2]
  agonist activity on T2R38 (in words): able to specifically trigger this receptor
[2]; T2R38 PAV, individual values of experiments 1-5
  response of T2R38 PAV transfected cells (S7_fig raw data): 9% and 12% and 15% and 13% (2×) and 7.41% and 5.71% and 14%
[2]; concentration-response curve, read-out: EC50
  EC50: 4 mM
[2]; given in the concentration-response curve, read-out: logEC50 (converted)
  EC50: 4.17 mM
[2]; percentage of the response elicited by 0.1 mM PTC, read-out: Emax (% of positive control)
  Emax: 45%
[4]; T2R38 AVI, individual values of experiments 1-5
  response of T2R38 AVI transfected cells (S7_fig raw data): 0.427% and 0.477% and 0.476% and 0.193% and 0.0823% and 0.141% and 0.285% and 0.393%

## C[S+](C)[O-] [DMSO, dimethylsulfoxide]
[3]; DMSO 0.0208957 M
  percentage of surface covered by activated cells: 0.0457% and 0.0545% and 0.10%
[3]; DMSO 0.0505834 M
  percentage of surface covered by activated cells: 0.62% and 0.46% and 0.98%
[3]; DMSO 0.0660305 M
  percentage of surface covered by activated cells: 1.05% and 0.28% and 0.79%
[3]; DMSO 0.113804 M
  percentage of surface covered by activated cells: 0.19% and 0.57% and 0.37%
[3]; DMSO 0.15%
  percentage of surface covered by activated cells: 0.20% and 0.05%
[3]; DMSO 0.161577 M
  percentage of surface covered by activated cells: 0.48% and 0.22% and 0.50%
[3]; DMSO 0.208656 M
  percentage of surface covered by activated cells: 1.44% and 1.21% and 1.20%
[3]; DMSO 0.283773 M
  percentage of surface covered by activated cells: 0.60% and 5.54% and 2.61%
[3]; DMSO 0.3%
  percentage of surface covered by activated cells: 0.01%
[3]; DMSO 0.388101 M
  percentage of surface covered by activated cells: 0.89% and 2.18% and 2.66%
[3]; DMSO 0.417313 M
  percentage of surface covered by activated cells: 2.52% and 1.37% and 1.55%
[3]; DMSO 1.5%
  percentage of surface covered by activated cells: 1.51% and 0.51% and 0.83% and 0.76% and 0.97% and 0.34%
[2]
  agonist activity on T2R38 (in words): activated T2R38
[2]; DMSO 0.0208957 M
  percentage of surface covered by activated cells: 0.32% and 1.00% and 0.12% and 3.02% and 1.04% and 0.84%
[2]; DMSO 0.0505834 M
  percentage of surface covered by activated cells: 0.62% and 1.17% and 1.07% and 2.06% and 2.44%
[2]; DMSO 0.0660305 M
  percentage of surface covered by activated cells: 0.58% and 2.76% and 4.06% and 1.23% and 6.36% and 2.08%
[2]; DMSO 0.15%
  percentage of surface covered by activated cells: 0.58% and 0.91% and 0.69% and 1.00%
[2]; DMSO 0.3%
  percentage of surface covered by activated cells: 0.69% and 0.46%
[2]; DMSO 1.5%
  percentage of surface covered by activated cells: 4.39% and 7.39% and 7.25% and 2.49% and 4.85% and 7.28%
[2]; DMSO 1.5% (209 mM) alone
  T2R38-dependent calcium response: induced a T2R38-dependent calcium response of the same intensity; also recorded: activates specifically T2R38
[2]; percentage of the response elicited by 0.1 mM PTC
  Emax (% of positive control): 88 % of positive control
[4]
  effect on the non-functional haplotype of T2R38 (AVI): absence of effect

## CC[C@H](C)[C@H](NC(=O)[C@H](Cc1ccccc1)NC(=O)[C@H](CC(=O)O)NC(=O)[C@H](CCCNC(=N)N)NC(=O)[C@H](Cc1ccccc1)NC(=O)[C@H](Cc1ccccc1)NC(=O)[C@H](CCCCN)NC(=O)[C@H](CO)NC(=O)[C@H](CC(C)C)NC(=O)[C@H](CCCNC(=N)N)NC(=O)[C@H](CCSC)NC(=O)[C@@H](N)CCC(=O)O)C(=O)N[C@@H](CC(C)C)C(=O)N[C@@H](CCC(N)=O)C(=O)N[C@@H](CCCNC(=N)N)C(=O)N[C@@H](CCCCN)C(=O)N[C@@H](CCCCN)C(=O)O [CSP-1]
[1]
  solubility: soluble at 0.5 mM in the buffer solution
[2]
  agonist activity on T2R38 (in words): inactive
[2]; CSP-1 0.5 mM, T2R38, individual values of experiments 1-3
  response of T2R38 transfected cells (S6_fig raw data): 37.13% and 3.20% and 100.83%
